56 compounds from patent publication US8716493B2, “Multicyclic compounds and the use thereof” (Cephalon, Inc., priority 2000, dated 2014) can be followed below.

Where a name gives a salt, the structure may show the parent alone.

Sequence of recombinant human PARP (P09874 whole entry): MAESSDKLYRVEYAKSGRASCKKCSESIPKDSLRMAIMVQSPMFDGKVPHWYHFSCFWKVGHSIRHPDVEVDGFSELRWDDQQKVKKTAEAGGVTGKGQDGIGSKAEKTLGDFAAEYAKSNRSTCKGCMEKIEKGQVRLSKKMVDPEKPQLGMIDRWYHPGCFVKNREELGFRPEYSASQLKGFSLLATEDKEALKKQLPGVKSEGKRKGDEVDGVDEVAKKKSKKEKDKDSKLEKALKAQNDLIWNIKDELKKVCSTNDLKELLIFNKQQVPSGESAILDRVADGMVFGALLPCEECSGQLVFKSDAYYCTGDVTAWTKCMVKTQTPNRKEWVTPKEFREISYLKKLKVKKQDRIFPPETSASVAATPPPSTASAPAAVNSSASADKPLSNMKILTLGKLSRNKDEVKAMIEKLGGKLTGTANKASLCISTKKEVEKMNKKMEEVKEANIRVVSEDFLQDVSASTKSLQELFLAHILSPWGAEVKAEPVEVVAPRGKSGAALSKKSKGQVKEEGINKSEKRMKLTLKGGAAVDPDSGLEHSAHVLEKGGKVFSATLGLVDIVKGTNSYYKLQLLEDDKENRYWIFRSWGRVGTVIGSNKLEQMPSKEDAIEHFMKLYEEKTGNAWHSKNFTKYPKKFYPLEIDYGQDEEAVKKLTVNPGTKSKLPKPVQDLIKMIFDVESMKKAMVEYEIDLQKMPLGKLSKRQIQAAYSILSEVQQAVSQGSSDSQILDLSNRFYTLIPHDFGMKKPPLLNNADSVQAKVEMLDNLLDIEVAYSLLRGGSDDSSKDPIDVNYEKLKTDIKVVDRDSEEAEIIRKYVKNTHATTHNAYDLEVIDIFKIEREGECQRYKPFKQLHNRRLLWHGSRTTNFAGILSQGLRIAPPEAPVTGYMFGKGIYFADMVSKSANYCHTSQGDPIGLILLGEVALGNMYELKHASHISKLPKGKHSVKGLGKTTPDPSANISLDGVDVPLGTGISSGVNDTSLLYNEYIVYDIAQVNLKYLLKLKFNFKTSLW

The first experiment concerns the target recombinant human PARP (Homo sapiens, UniProt P09874). Kind of experiment: Measurement of PARP enzymatic activity (transfer of radiolabeled ADP-ribose from NAD+ to protein acceptor). The experiment is classed as biochemical. As to conditions: PARP IC50 (nM), Table 2. The procedure:
PARP activity was monitored by transfer of radiolabeled ADP-ribose units from [^32]NAD^+ to a protein acceptor such as histone or PARP itself. […] The reactions were initiated by the addition of 100 μM NAD^+ supplemented with 2 uCi [^32]NAD^+/mL and maintained at room temperature for 12 minutes. […] The amount of acid-insoluble radioactivity, corresponding to polyADP-ribosylated protein, was quantitated in a Wallac MicroBeta scintillation counter.
Single-point inhibition data were calculated by comparing PARP, VEGFR2, or MLK3 activity in the presence of inhibitor to activity in the presence of DMSO only. Inhibition curves for compounds were generated by plotting percent inhibition versus log10 of the concentration of compound. IC50 values were calculated by nonlinear regression using the sigmoidal dose-response (variable slope) equation in GraphPad Prism as follows: y=bottom+(top−bottom)/(1+10^(log IC50^−x)*Hillslope) where y is the % activity at a given concentration of compound, x is the logarithm of the concentration of compound, bottom is the % inhibition at the lowest compound concentration tested, and top is the % inhibition at the highest compound concentration examined. The values for bottom and top were fixed at 0 and 100, respectively. IC50 values were reported as the average of at least three separate determinations.
For some compounds, inhibiting data is presented as percent inhibition at a specified concentration. Compounds are tabulated together with compound number, substituents, and enzyme inhibition data.
The term IC50 denotes the point on the concentration scale where inhibition reaches its midpoint. Consider `O=C1NC(=O)c2c1c1c(c3[nH]c4ccc(-c5csc(CNC(=O)C6CCCC6)n5)cc4c23)CCC1` [Compound 3x], for which the IC50 was determined as 52 nM.

Staying with this experiment, now noted: PARP IC50 (nM), Table 8.
With `O=C(NCCc1ccccn1)Oc1ccc2[nH]c3c4c(c5c(c3c2c1)C(=O)NC5=O)CCC4` [Compound 15g], the IC50 stood at 36 nM.

For the compound `O=C(NCc1cccnc1)Oc1ccc2[nH]c3c4c(c5c(c3c2c1)C(=O)NC5=O)CCC4` [Compound 15f], the 50% inhibitory concentration (IC50) worked out at 34 nM.

In the case of `CN1CCN(C(=O)Oc2ccc3[nH]c4c5c(c6c(c4c3c2)C(=O)NC6=O)CCC5)CC1` [Compound 15b], the half-maximal inhibitory concentration (IC50) amounted to 51 nM.

The same experiment, now with this note: PARP IC50, Table 18.
As to `O=C(NCCn1cncn1)Oc1ccc2[nH]c3c4c(c5c(c3c2c1)C(=O)NC5=O)CCC4` [Compound 15n], the half-inhibitory concentration (IC50) was found to be 38 nM.

The same experiment, now with this note: Table 1; read-out: PARP IC50.
As to `NCCCC[C@H](N)C(=O)n1c2ccccc2c2c3c(c4c(c21)CCC4)C(=O)NC3` [Compound 1v, 11-L-Lysyl-5,7,8,9,10,11-hexahydrocyclopent[a]pyrrolo[3,4-c]carbazole-7(6H)-one dihydrochloride], the half-inhibitory concentration (IC50) stood at 1400 nM.

For the compound `CCN(CC)CCCN1C(=O)c2c3c(c4[nH]c5ccccc5c4c2C1=O)CCC3` [Compound 1h], the half-inhibitory concentration (IC50) is 819 nM.

Staying with this experiment, now noted: Table 2; read-out: PARP IC50.
As to `CC(=O)Nc1nc(-c2ccc3[nH]c4c5c(c6c(c4c3c2)C(=O)NC6=O)CCC5)cs1` [Compound 3i], the IC50 worked out at 54 nM.

Regarding `O=C(O)CCC(=O)NCc1ccc2[nH]c3c4c(c5c(c3c2c1)C(=O)NC5=O)CCC4` [Compound 2ab, 3-(N-(3-(Carboxy)propanoyl)aminomethyl)-5,7,8,9,10,11-hexahydrocyclopent[a]-pyrrolo[3,4-c]carbazole-5(6H), 7-dione], the IC50 was 50 nM.

Regarding `O=CNCc1ccc2[nH]c3c4c(c5c(c3c2c1)C(=O)NC5=O)CCC4` [Compound 2ce], the IC50 came to 34 nM.

Take `O=C(NCc1cccnc1)c1ccc2[nH]c3c4c(c5c(c3c2c1)C(=O)NC5=O)CCC4` [Compound 2cl]: the IC50 is 21 nM.

Regarding `O=C1NC(=O)c2c1c1c(c3[nH]c4ccc(CN(Cc5ccccc5)Cc5ccccc5)cc4c23)CCC1` [Compound 2bo], the half-inhibitory concentration (IC50) came out at 293 nM.

Turning to `CS(=O)(=O)Cc1nc(-c2ccc3[nH]c4c5c(c6c(c4c3c2)C(=O)NC6=O)CCC5)cs1` [Compound 3z], the IC50 came out at 38 nM.

In the case of `CCCCNCc1ccc2[nH]c3c4c(c5c(c3c2c1)C(=O)NC5=O)CCC4` [Compound 2bp], the IC50 was determined as 25 nM.

`CN(C)CCCNC(=O)c1ccc2[nH]c3c4c(c5c(c3c2c1)C(=O)NC5=O)CCC4` [Compound 2ch]: the half-maximal inhibitory concentration (IC50) is 33 nM.

For `CC(=O)NCc1ccc2[nH]c3c4c(c5c(c3c2c1)C(=O)NC5=O)CCC4` [Compound 2r, 3-(Acetylaminomethyl)-5,7,8,9,10,11-hexahydrocyclopent[a]pyrrolo[3,4-c]carbazole-5(6H), 7-dione], the 50% inhibitory concentration (IC50) is 13 nM.

On to `O=C(NCC1CCCO1)c1ccc2[nH]c3c4c(c5c(c3c2c1)C(=O)NC5=O)CCC4` (centres unmarked) [Compound 2cr], for which the IC50 was determined as 14 nM.

Turning to `CC(=O)NCc1nc(-c2ccc3[nH]c4c5c(c6c(c4c3c2)C(=O)NC6=O)CCC5)cs1` [Compound 3n], the IC50 worked out at 20 nM.

Take `Cc1nc(-c2ccc3[nH]c4c5c(c6c(c4c3c2)C(=O)NC6=O)CCC5)c(Br)s1` [Compound 3c]: the IC50 worked out at 84 nM.

Regarding `CCNCc1ccc2[nH]c3c4c(c5c(c3c2c1)C(=O)NC5=O)CCC4` [Compound 2bk], the IC50 stood at 32 nM.

Consider `O=C1NC(=O)c2c1c1c(c3[nH]c4ccc(S(=O)(=O)O)cc4c23)CCC1` [Compound 2ae], for which the IC50 amounted to 8 nM.

As to `CN(CCc1ccccn1)C(=O)c1ccc2[nH]c3c4c(c5c(c3c2c1)C(=O)NC5=O)CCC4` [Compound 2cw], the IC50 turned out to be 24 nM.

`CN1CCN(CC(=O)c2ccc3[nH]c4c5c(c6c(c4c3c2)C(=O)NC6=O)CCC5)CC1` [Compound 2g]: the IC50 was found to be 16 nM.

Turning to `COCCNC(=O)c1ccc2[nH]c3c4c(c5c(c3c2c1)C(=O)NC5=O)CCC4` [Compound 2co], the IC50 came out at 18 nM.

With `O=C1NC(=O)c2c1c1c(c3[nH]c4ccc(CN5CCOCC5)cc4c23)CCC1` [Compound 2bv], the IC50 was 32 nM.

In the case of `CC(C)(C)OC(=O)Cc1nc(-c2ccc3[nH]c4c5c(c6c(c4c3c2)C(=O)NC6=O)CCC5)cs1` [Compound 3q], the IC50 is 29 nM.

For the compound `NCCc1ccc2[nH]c3c4c(c5c(c3c2c1)C(=O)NC5=O)CCC4` [Compound 2be], the half-inhibitory concentration (IC50) came out at 36 nM.

In the case of `CCN(CC)CCOc1ccc2[nH]c3c4c(c5c(c3c2c1)C(=O)NC5=O)CCC4` [Compound 2ar], the IC50 was found to be 88 nM.

In the case of `NCC(=O)NCc1ccc2[nH]c3c4c(c5c(c3c2c1)C(=O)NC5=O)CCC4` [Compound 2x, 3-(N-(2-(Amino)acetyl)aminomethyl)-5,7,8,9,10,11-hexahydrocyclopent[a]pyrrolo[3,4-c]carbazole-5(6H), 7-dione], the IC50 was found to be 45 nM.

Consider `CCCCN(CCCC)Cc1ccc2[nH]c3c4c(c5c(c3c2c1)C(=O)NC5=O)CCC4` [Compound 2bn], for which the IC50 was 28 nM.

In the case of `O=C1NC(=O)c2c1c1c(c3[nH]c4ccc(CNS(=O)(=O)c5ccccc5)cc4c23)CCC1` [Compound 2cd], the IC50 turned out to be 39 nM.

For the compound `O=C(CCC(=O)N1CCCCC1)c1ccc2[nH]c3c4c(c5c(c3c2c1)C(=O)NC5=O)CCC4` [Compound 4p], the half-maximal inhibitory concentration (IC50) amounted to 10 nM.

Take `Cc1ccc2[nH]c3c4c(c5c(c3c2c1)C(=O)NC5=O)CCC4` [Compound 2bf]: the half-maximal inhibitory concentration (IC50) stood at 82 nM.

In the case of `O=C1NC(=O)c2c1c1c(c3[nH]c4ccc(C(=O)N5CCOCC5)cc4c23)CCC1` [Compound 2cp], the IC50 was 12 nM.

For `O=C(O)c1ccc2[nH]c3c4c(c5c(c3c2c1)C(=O)NC5=O)CCC4` [Compound 2bd], the IC50 was 85 nM.

As for `COC(=O)C1CCCN1CC(=O)c1ccc2[nH]c3c4c(c5c(c3c2c1)C(=O)NC5=O)CCC4` (centres unmarked) [Compound 4a], the half-maximal inhibitory concentration (IC50) came out at 12 nM.

With `Cc1sc(N)nc1-c1ccc2[nH]c3c4c(c5c(c3c2c1)C(=O)NC5=O)CCC4` [Compound 3d], the IC50 amounted to 50 nM.

With `CC(C)(C)OC(=O)NCCCC(=O)NCc1ccc2[nH]c3c4c(c5c(c3c2c1)C(=O)NC5=O)CCC4` [Compound 2w, 3-(N-(4-(N-Boc-amino)butanoyl)aminomethyl)-5,7,8,9,10,11-hexahydrocyclopent[a]pyrrolo[3,4-c]carbazole-5(6H), 7-dione], the concentration for half-maximal inhibition (IC50) was found to be 33 nM.

Take `CC(=O)c1ccc2[nH]c3c4c(c5c(c3c2c1)C(=O)NC5=O)CCC4` [Compound 2d]: the IC50 amounted to 17 nM.

As for `COC(=O)c1ccc2[nH]c3c4c(c5c(c3c2c1)C(=O)NC5=O)CCC4` [Compound 2bi], the IC50 came to 27 nM.

`CCOCc1ccc2[nH]c3c4c(c5c(c3c2c1)C(=O)NC5=O)CCC4` [Compound 2de]: the IC50 worked out at 43 nM.

Take `O=C(CCC(=O)N1CCOCC1)c1ccc2[nH]c3c4c(c5c(c3c2c1)C(=O)NC5=O)CCC4` [Compound 4f]: the 50% inhibitory concentration (IC50) came out at 13 nM.

As for `COc1ccc2[nH]c3c4c(c5c(c3c2c1)C(=O)NC5=O)CCC4` [Compound 2ap], the concentration for half-maximal inhibition (IC50) was found to be 32 nM.

In the case of `CN(CC(=O)O)CC(=O)c1ccc2[nH]c3c4c(c5c(c3c2c1)C(=O)NC5=O)CCC4` [Compound 2l], the half-maximal inhibitory concentration (IC50) stood at 8 nM.

`O=C(CCC(=O)c1ccc2[nH]c3c4c(c5c(c3c2c1)C(=O)NC5=O)CCC4)NCCO` [Compound 4g]: the 50% inhibitory concentration (IC50) was determined as 9 nM.

The same experiment, now with this note: Table 3; read-out: PARP IC50.
As for `NCCCC[C@H](N)C(=O)N1C(=O)c2c3c(c4[nH]c5ccc(Cl)cc5c4c2C1=O)CCC3` [Compound 6f], the IC50 was 62 nM.

As for `N#Cc1ccc2c(c1)c1c3c(c4c(c1n2C(=O)[C@@H](N)CCCCN)CCC4)C(=O)NC3` [Compound 6j, 3-Cyano-11-L-lysyl-5,7,8,9,10,11-hexahydrocyclopent[a]pyrrolo[3,4-c]carbazole-7(6H)-one dihydrochloride], the IC50 is 460 nM.

The experiment is the same for the next values; noted with them: Table 4; read-out: PARP IC50.
`O=c1[nH][nH]c(=O)c2c1c1c(c3[nH]ccc32)CCC1` [Compound 8e, 1,6,7,8-Tetrahydrocyclopent[g]indole-4,5-dicarboxylate hydrazide]: the concentration for half-maximal inhibition (IC50) came to 1820 nM.

For the compound `O=C1NC(=O)c2c1c1c(c3[nH]cc(Br)c23)CCC1` [Compound 8c, 3-Bromo-1,6,7,8-tetrahydrocyclopent[g]indole-4,5-dicarboxylate imide], the IC50 is 5 nM.

Still in this experiment, the particulars now being: Table 18; read-out: PARP IC50.
Turning to `COc1cccc2[nH]c3c4c(c5c(c3c12)C(=O)N(CN1CCN(C)CC1)C5=O)CCC4` [Compound 16e], the half-maximal inhibitory concentration (IC50) amounted to 14 nM.

`O=C1NC(=O)c2c1c1c(c3[nH]c4nccc(Cl)c4c23)CCC1` [Compound 8z]: the IC50 is 9 nM.

For `CCN(CC)CCOc1cccc2[nH]c3c4c(c5c(c3c12)C(=O)NC5=O)CCC4` [Compound 14e], the IC50 was 526 nM.

As for `COc1ccc2[nH]c3c4c(c5c(c3c2c1OC)C(=O)NC5=O)CCC4` [Compound 14l], the concentration for half-maximal inhibition (IC50) was 21 nM.

Regarding `CCOCCOc1cccc2[nH]c3c4c(c5c(c3c12)C(=O)NC5=O)CCC4` [Compound 14i], the IC50 was 36 nM.

Turning to `O=C1NC(=O)c2c1c1c(c3[nH]c4c(ccc[n+]4[O-])c23)CCC1` [Compound 8l], the IC50 was 38 nM.

In the case of `CC(C)OCCOc1cccc2[nH]c3c4c(c5c(c3c12)C(=O)NC5=O)CCC4` [Compound 14j], the IC50 is 70 nM.
